Test results from patent US6337330B1, “Antitussives” (priority 1997, dated 2002).

Legend:
[1] = system: Mouse Model of Capsaicin-induced Cough; assay: Antitussive action using mouse model of capsaicin-induced cough; format: in vivo
Method: Evaluation of Antitussive Action Using Mouse Model of Capsaicin-induced Cough
Capsaicin (30 μM) was sent as aerosol to a cap attached to the head of a mouse by using an ultrasonic nebulizer and an artificial respiratory apparatus through a silicon tube, and inhaled by the mouse to induce coughs. For inhalation of capsaicin, capsaicin was sent by using the artificial respiratory apparatus at a rate of 60 times per minute in a dose of 5 ml at a time.
15 minutes before administration of a medicine, capsaicin was inhaled for 3 minutes, and it was confirmed that coughs were induced during this time. 15 minutes, 60 minutes and 120 minutes after administration of a medicine, capsaicin was inhaled for 3 minutes to measure the number of coughs induced during this time. The antitussive effect was evaluated by determining the inhibition rate shown by the number of coughs after administration of a medicine based on the number of coughs before administration of a medicine. Capsaicin was dissolved in 10% ethanol and a 10% Tween 80 solution, and diluted with physiological saline. The medicine was dissolved in physiological saline, and intraperitoneally administered.

[2] = system: Rat Model of Capsaicin-induced Cough; assay: Antitussive action using rat model of capsaicin-induced cough; format: in vivo, SD male rats; conditions: 30 minutes after administration, capsaicin 60 μM, versus distilled water group
From the text: Evaluation of Antitussive Action Using Rat Model of Capsaicin-induced Cough
Rat groups each consisting of 5 SD male rats (Charles River Japan) of 7 weeks old were used. The rats not anesthetized were placed in a container comprising two acrylic cylinders including a head and a body. A rubber collar and plastic collar were put on each of the rats, and the head and body of the container were independently provided.
Capsaicin used as a medicine for inducing coughs was aerosolized by an ultrasonic nebulizer, and inhaled by the rats from the front side of the container by using an artificial respiration apparatus. The concentration of capsaicin was 60 μM. In this inhalation, the flow rate of air was 10 ml×70 times/min (700 ml/min). Changes in internal pressure of the closed body box were recorded on a recorder through a differential transducer. Coughs were measured by the changes in internal the body box and visually observing the motions of the rats.
A medicine was diluted with distilled water, and 1 to 10 mg/5 ml/kg was subcutaneously administered.
Each of the rats was fixed by a holder, and 60 minutes after, capsaicin was inhaled for 3 minutes to count the number of coughs. The rats having at least 9 coughs were subjected to examination of a medicine. The rats were administered subcutaneously with a medicine, and fixed by a holder, and 30 minutes after, capsaicin was inhaled for 3 minutes to count the number of coughs. The antitussive action of each of compounds was represented by the inhibition rate shown by the number of coughs of the group in which a medicine was administered based on the number of coughs of the group in which distilled water was administered.

## COc1cccc([C@@]23CCN(C)C[C@@H]2Cc2cc4ccccc4nc2C3)c1
other
  melting point: 154 to 155.5 °C

## CN1CC[C@@]2(c3cccc(O)c3)Cc3nc4ccccc4cc3CC2C1 (stereo in doubt) [Compound 2, (4aR, 12aR)-2-methyl-4a-(3-hydroxyphenyl)-1,2,3,4,4a,5,12,12a-octahydro-quinolino[2,3-g]isoquinoline]
[1]; 10 μg/kg intraperitoneal
  time of peak antitussive effect after administration: 15 min
[1]; 10 μg/kg intraperitoneal, 120 minutes after administration
  antitussive effect 120 minutes after administration: recovered to the same level as a group in which physiological saline was administered
[1]; 10 μg/kg intraperitoneal, versus physiological saline group, p<0.05 (U test)
  effect of suppressing coughs (inhibition rate of number of coughs): significant effect of suppressing coughs
[1]; ip, intraperitoneal, fifteen minutes after administration, capsaicin 30 μM inhalation, calculated from FIG. 2, read-out: ED50 value of the antitussive effect
  ED50: 4.2 µg/kg
[2]; 1 mg/kg subcutaneous
  Inhibition rate (%) of number of coughs: 72.5%

## Oc1cccc([C@@]23CCNCC2Cc2cc4ccccc4nc2C3)c1 (stereo in doubt) [Compound 4, (4aR, 12aR)-4a-(3-hydroxyphenyl)-1,2,3,4,4a,5,12,12a-octahydroquinolino[2,3-g]isoquinoline]
[2]; 10 mg/kg subcutaneous
  Inhibition rate (%) of number of coughs: 34.0%

## Oc1cccc([C@@]23CCN(CC4CC4)CC2Cc2cc4ccccc4nc2C3)c1 (stereo in doubt) [Compound 6, (4aR, 12aR)-2-cyclopropylmethyl-4a-(3-hydroxyphenyl)-1,2,3,4,4a,5,12,12a-octahydroquinolino[2,3-g]isoquinoline]
[2]; 1 mg/kg subcutaneous
  Inhibition rate (%) of number of coughs: 30.9%

## Oc1cccc([C@@]23CCN(CCc4ccccc4)C[C@H]2Cc2cc4ccccc4nc2C3)c1 [Compound 7, (4aR, 12aR)-2-(2-phenethyl)-4a-(3-hydroxyphenyl)-1,2,3,4,4a,5,12,12a-octahydroquinolino[2,3-g]isoquinoline]
[2]; 1 mg/kg subcutaneous
  Inhibition rate (%) of number of coughs: 44.3%
